Source: PubChem BioAssay (NCI)
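Compound exposure: 48 hours, 5 concentrations, 96-well plates. TGI denotes the concentration required for complete inhibition of growth.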

Columns and labels:
Assay in all cases: DTP human tumour cell line panel, 48 h
786-0 renal = system: 786-0 renal
A498 renal = system: A498 renal
A549 NSCLC = system: A549 NSCLC
ACHN renal = system: ACHN renal
BT-549 breast = system: BT-549 breast
CAKI-1 renal = system: CAKI-1 renal
CCRF-CEM leukemia = system: CCRF-CEM leukemia
COLO 205 colon = system: COLO 205 colon
DU-145 prostate = system: DU-145 prostate
EKVX NSCLC = system: EKVX NSCLC
HCT-116 colon = system: HCT-116 colon
HCT-15 colon = system: HCT-15 colon
HL-60(TB) leukemia = system: HL-60(TB) leukemia
HOP-62 NSCLC = system: HOP-62 NSCLC
HOP-92 NSCLC = system: HOP-92 NSCLC
HS 578T breast = system: HS 578T breast
HT29 colon = system: HT29 colon
IGROV1 ovarian = system: IGROV1 ovarian
K-562 leukemia = system: K-562 leukemia
KM12 colon = system: KM12 colon
M14 melanoma = system: M14 melanoma
MALME-3M melanoma = system: MALME-3M melanoma
MCF7 breast = system: MCF7 breast
MDA-MB-231 breast = system: MDA-MB-231 breast
MDA-MB-435 = system: MDA-MB-435
MDA-N = system: MDA-N
MOLT-4 leukemia = system: MOLT-4 leukemia
NCI-H226 lung = system: NCI-H226 lung
NCI-H23 lung = system: NCI-H23 lung
NCI-H460 lung = system: NCI-H460 lung
NCI-H522 lung = system: NCI-H522 lung
NCI/ADR-RES ovarian = system: NCI/ADR-RES ovarian
OVCAR-3 ovarian = system: OVCAR-3 ovarian
OVCAR-4 ovarian = system: OVCAR-4 ovarian
OVCAR-5 ovarian = system: OVCAR-5 ovarian
OVCAR-8 ovarian = system: OVCAR-8 ovarian
PC-3 prostate = system: PC-3 prostate
RPMI-8226 leukemia = system: RPMI-8226 leukemia
RXF 393 renal = system: RXF 393 renal
SF-268 CNS = system: SF-268 CNS
SF-295 CNS = system: SF-295 CNS
SF-539 CNS = system: SF-539 CNS
SK-MEL-2 melanoma = system: SK-MEL-2 melanoma
SK-MEL-28 melanoma = system: SK-MEL-28 melanoma
SK-MEL-5 melanoma = system: SK-MEL-5 melanoma
SK-OV-3 ovarian = system: SK-OV-3 ovarian
SN12C renal = system: SN12C renal
SNB-19 CNS = system: SNB-19 CNS
SNB-75 CNS = system: SNB-75 CNS
SR leukemia = system: SR leukemia
SW-620 colon = system: SW-620 colon
T-47D breast = system: T-47D breast
U251 CNS = system: U251 CNS
UACC-257 melanoma = system: UACC-257 melanoma
UACC-62 melanoma = system: UACC-62 melanoma
UO-31 renal = system: UO-31 renal
LOX IMVI melanoma = system: LOX IMVI melanoma
TK-10 renal = system: TK-10 renal

C1=NCCNCCNCCN=Cc2ccccc2OCc2cccc(n2)COc2ccccc21
TGI (786-0 renal): > 100 µM | TGI (A498 renal): > 100 µM | TGI (A549 NSCLC): > 100 µM | TGI (ACHN renal): 83.4 µM | TGI (BT-549 breast): > 100 µM | TGI (CAKI-1 renal): > 100 µM | TGI (CCRF-CEM leukemia): 55.1 µM | TGI (COLO 205 colon): > 100 µM | TGI (DU-145 prostate): > 100 µM | TGI (EKVX NSCLC): > 100 µM | TGI (HCT-116 colon): > 100 µM | TGI (HCT-15 colon): > 100 µM | TGI (HL-60(TB) leukemia): 73.7 µM | TGI (HOP-62 NSCLC): > 100 µM | TGI (HOP-92 NSCLC): > 100 µM | TGI (HS 578T breast): > 100 µM | TGI (HT29 colon): 51.6 µM | TGI (IGROV1 ovarian): > 100 µM | TGI (K-562 leukemia): > 100 µM | TGI (KM12 colon): > 100 µM | TGI (M14 melanoma): > 100 µM | TGI (MALME-3M melanoma): > 100 µM | TGI (MCF7 breast): > 100 µM | TGI (MDA-MB-231 breast): > 100 µM | TGI (MDA-MB-435): 30 µM | TGI (MDA-N): 45.3 µM | TGI (MOLT-4 leukemia): > 100 µM | TGI (NCI-H226 lung): > 100 µM | TGI (NCI-H23 lung): > 100 µM | TGI (NCI-H460 lung): > 100 µM | TGI (NCI-H522 lung): > 100 µM | TGI (NCI/ADR-RES ovarian): 60.4 µM | TGI (OVCAR-3 ovarian): > 100 µM | TGI (OVCAR-4 ovarian): > 100 µM | TGI (OVCAR-5 ovarian): > 100 µM | TGI (OVCAR-8 ovarian): 84.4 µM | TGI (PC-3 prostate): > 100 µM | TGI (RPMI-8226 leukemia): > 100 µM | TGI (RXF 393 renal): > 100 µM | TGI (SF-268 CNS): > 100 µM | TGI (SF-295 CNS): 94 µM | TGI (SF-539 CNS): 82.3 µM | TGI (SK-MEL-2 melanoma): > 100 µM | TGI (SK-MEL-28 melanoma): > 100 µM | TGI (SK-MEL-5 melanoma): > 100 µM | TGI (SK-OV-3 ovarian): > 100 µM | TGI (SN12C renal): > 100 µM | TGI (SNB-19 CNS): > 100 µM | TGI (SNB-75 CNS): > 100 µM | TGI (SR leukemia): 88.9 µM | TGI (SW-620 colon): > 100 µM | TGI (T-47D breast): > 100 µM | TGI (U251 CNS): 66.3 µM | TGI (UACC-257 melanoma): > 100 µM | TGI (UACC-62 melanoma): > 100 µM | TGI (UO-31 renal): > 100 µM

CC(O)C1(CNc2cc(Cl)nc(N)n2)CC(CCc2ccccc2)C1 (configuration not stated)
TGI (786-0 renal): 39 µM | TGI (A498 renal): 27.3 µM | TGI (A549 NSCLC): 31 µM | TGI (ACHN renal): 22.2 µM | TGI (BT-549 breast): 33.6 µM | TGI (CAKI-1 renal): 29.4 µM | TGI (CCRF-CEM leukemia): 94.5 µM | TGI (COLO 205 colon): 28.8 µM | TGI (DU-145 prostate): 35.9 µM | TGI (EKVX NSCLC): 37.3 µM | TGI (HCT-116 colon): 21.1 µM | TGI (HCT-15 colon): 24 µM | TGI (HL-60(TB) leukemia): 41.7 µM | TGI (HOP-62 NSCLC): 27.3 µM | TGI (HOP-92 NSCLC): 25 µM | TGI (HS 578T breast): 38.4 µM | TGI (HT29 colon): 25.7 µM | TGI (IGROV1 ovarian): 28.4 µM | TGI (K-562 leukemia): 86.4 µM | TGI (KM12 colon): 27.7 µM | TGI (LOX IMVI melanoma): 16.9 µM | TGI (M14 melanoma): 33.4 µM | TGI (MALME-3M melanoma): 26.4 µM | TGI (MCF7 breast): 0.992 µM | TGI (MDA-MB-231 breast): 22.5 µM | TGI (MDA-MB-435): 26.6 µM | TGI (MDA-N): 27.6 µM | TGI (MOLT-4 leukemia): 56 µM | TGI (NCI-H226 lung): 30.8 µM | TGI (NCI-H23 lung): 19.4 µM | TGI (NCI-H460 lung): 27.7 µM | TGI (NCI-H522 lung): 21.8 µM | TGI (NCI/ADR-RES ovarian): 21.8 µM | TGI (OVCAR-3 ovarian): 33.7 µM | TGI (OVCAR-4 ovarian): 23.3 µM | TGI (OVCAR-5 ovarian): 33.9 µM | TGI (OVCAR-8 ovarian): 32 µM | TGI (PC-3 prostate): 25.3 µM | TGI (RPMI-8226 leukemia): 43.1 µM | TGI (RXF 393 renal): 30.8 µM | TGI (SF-268 CNS): 29.4 µM | TGI (SF-295 CNS): 27.6 µM | TGI (SF-539 CNS): 32.6 µM | TGI (SK-MEL-2 melanoma): 31.7 µM | TGI (SK-MEL-28 melanoma): 27.8 µM | TGI (SK-MEL-5 melanoma): 19.7 µM | TGI (SK-OV-3 ovarian): 29.2 µM | TGI (SN12C renal): 20.9 µM | TGI (SNB-19 CNS): 34 µM | TGI (SNB-75 CNS): 40 µM | TGI (SR leukemia): 35.8 µM | TGI (SW-620 colon): 29.3 µM | TGI (T-47D breast): 44.1 µM | TGI (TK-10 renal): 43.1 µM | TGI (U251 CNS): 27.6 µM | TGI (UACC-257 melanoma): 19.8 µM | TGI (UACC-62 melanoma): 24.5 µM | TGI (UO-31 renal): 24.6 µM

CC(=O)OCCOc1cc2c([nH]c3ccccc32)c(C)c2cccc1-2
TGI (786-0 renal): 11 µM | TGI (A498 renal): 26.5 µM | TGI (A549 NSCLC): > 32.2 µM | TGI (ACHN renal): 3.35 µM | TGI (BT-549 breast): 8.22 µM | TGI (CAKI-1 renal): 6.14 µM | TGI (CCRF-CEM leukemia): > 30 µM | TGI (COLO 205 colon): 3.22 µM | TGI (DU-145 prostate): 15.8 µM | TGI (EKVX NSCLC): 5.17 µM | TGI (HCT-116 colon): 13.1 µM | TGI (HCT-15 colon): 10.3 µM | TGI (HL-60(TB) leukemia): 12.9 µM | TGI (HOP-62 NSCLC): 18.5 µM | TGI (HOP-92 NSCLC): 5.32 µM | TGI (HS 578T breast): > 100 µM | TGI (HT29 colon): 21.6 µM | TGI (IGROV1 ovarian): 4.84 µM | TGI (K-562 leukemia): > 100 µM | TGI (KM12 colon): 10.3 µM | TGI (LOX IMVI melanoma): 6.57 µM | TGI (M14 melanoma): 6.76 µM | TGI (MALME-3M melanoma): 5.64 µM | TGI (MCF7 breast): 15.2 µM | TGI (MDA-MB-231 breast): 3.38 µM | TGI (MDA-MB-435): 5.6 µM | TGI (MDA-N): 11 µM | TGI (MOLT-4 leukemia): > 100 µM | TGI (NCI-H226 lung): 25 µM | TGI (NCI-H23 lung): 5.17 µM | TGI (NCI-H460 lung): 7.6 µM | TGI (NCI-H522 lung): 4.29 µM | TGI (NCI/ADR-RES ovarian): > 100 µM | TGI (OVCAR-3 ovarian): 4.97 µM | TGI (OVCAR-4 ovarian): 4 µM | TGI (OVCAR-5 ovarian): 9.11 µM | TGI (OVCAR-8 ovarian): 7.68 µM | TGI (PC-3 prostate): 3.68 µM | TGI (RPMI-8226 leukemia): > 26.4 µM | TGI (RXF 393 renal): 4.4 µM | TGI (SF-268 CNS): 7.28 µM | TGI (SF-295 CNS): 15.2 µM | TGI (SF-539 CNS): 3.62 µM | TGI (SK-MEL-2 melanoma): 4.96 µM | TGI (SK-MEL-28 melanoma): 7.57 µM | TGI (SK-MEL-5 melanoma): 9.79 µM | TGI (SK-OV-3 ovarian): 18.5 µM | TGI (SN12C renal): 10.9 µM | TGI (SNB-19 CNS): 8.97 µM | TGI (SNB-75 CNS): 3.51 µM | TGI (SR leukemia): > 33.3 µM | TGI (SW-620 colon): > 24.9 µM | TGI (T-47D breast): 5.57 µM | TGI (TK-10 renal): 5.4 µM | TGI (U251 CNS): 3.16 µM | TGI (UACC-257 melanoma): 3.74 µM | TGI (UACC-62 melanoma): 6.05 µM | TGI (UO-31 renal): 3.34 µM
